How the values were obtained:
Type in all cases: in vivo
[1] = test system: ducksalad (Heteranthera limosa); assay: Test B flooded paddy test; conditions: Flood, 250 g ai/ha; 0 to 100 scale where 0 is no effect and 100 is complete control; 13 to 15 d
Procedure, shortened: (§1)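 Greenhouse paddy pots with 2-leaf stage plants received compound by direct addition to floodwater 3 cm deep, kept at that level. Scored visually at 13–15 d versus controls (0 no effect; 100 complete control).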

[2] = test system: sedge, umbrella (small-flower umbrella sedge, Cyperus difformis); assay: Test B flooded paddy test; conditions: Flood, 250 g ai/ha; 0 to 100 scale where 0 is no effect and 100 is complete control; 13 to 15 d
Procedure, shortened: as §1

rice (Oryra sativa) = assay: Test B flooded paddy test; conditions: Flood, 250 g ai/ha; 0 to 100 scale where 0 is no effect and 100 is complete control; 13 to 15 d
Procedure, shortened: as §1

[3] = test system: barnyardgrass (Echinochloa crus-galli); assay: Test B flooded paddy test; conditions: Flood, 250 g ai/ha; 0 to 100 scale where 0 is no effect and 100 is complete control; 13 to 15 d
Procedure, shortened: as §1

[4] = test system: ragweed (common ragweed, Ambrosia elatior); assay: Test A postemergence; conditions: postemergence
Procedure, shortened: (§2)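 In a loam soil and sand blend, planted seeds got a preemergence directed soil spray, and young plants at the one- to two-leaf stage, 2–10 cm high, got a postemergence application; ~10 d greenhouse hold; injury rated visually, 0 = none, 100 = complete control.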

[5] = test system: pigweed (Amaranthus retroflexus); assay: Test A postemergence; conditions: postemergence
Procedure, shortened: as §2

Kochia (Kochia scoparia) [6] = assay: Test A postemergence; conditions: postemergence
Procedure, shortened: as §2

[7] = test system: giant foxtail (Setaria faberii); assay: Test A postemergence; conditions: postemergence
Procedure, shortened: as §2

[8] = test system: barnyardgrass (Echinochloa crus-galli); assay: Test A postemergence; conditions: postemergence
Procedure, shortened: as §2

[9] = test system: ryegrass, Italian (Italian ryegrass, Lolium multiflorum); assay: Test A postemergence; conditions: postemergence
Procedure, shortened: as §2

[10] = test system: wheat (Triticum aestivum); assay: Test A postemergence; conditions: postemergence
Procedure, shortened: as §2

[11] = test system: blackgrass (Alopecurus myosuroides); assay: Test A postemergence; conditions: postemergence
Procedure, shortened: as §2

[12] = test system: Galium (catchweed bedstraw, Galium aparine); assay: Test A postemergence; conditions: postemergence
Procedure, shortened: as §2

corn (Zea mays) = assay: Test A postemergence; conditions: postemergence
Procedure, shortened: as §2

[13] = test system: ragweed (common ragweed, Ambrosia elatior); assay: Test A preemergence
Procedure, shortened: as §2

[14] = test system: pigweed (Amaranthus retroflexus); assay: Test A preemergence
Kochia (Kochia scoparia) [15] = assay: Test A preemergence
Procedure, shortened: as §2

[16] = test system: giant foxtail (Setaria faberii); assay: Test A preemergence
Procedure, shortened: as §2

[17] = test system: barnyardgrass (Echinochloa crus-galli); assay: Test A preemergence
Procedure, shortened: as §2

[18] = test system: ryegrass, Italian (Italian ryegrass, Lolium multiflorum); assay: Test A preemergence
Procedure, shortened: as §2

[19] = 125 g ai/ha, visual injury rating on 0 to 100 scale (0 no effect, 100 complete control), approx. 10 d
[20] = 500 g ai/ha, 0 to 100 scale, 0 no effect, 100 complete control
[21] = 125 g ai/ha, preemergence, 0 to 100 scale (0 no effect, 100 complete control)
[22] = Preemergence, 500 g ai/ha, visual injury approx. 10 d

SMILES: O=C1NCC(c2ccc(Br)cc2)C1C(=O)Nc1cccc(F)c1F (stereo not drawn) [Compound 446]
- Plant response rating, Ducksalad [1]: 100
- Plant response rating, Sedge, Umbrella [2]: 0
- Plant response rating, Rice (rice (Oryra sativa)): 0
- Plant response rating, Barnyardgrass [3]: 75
- Ragweed plant response rating [4, 19]: 0
- Plant response rating, Ragweed [4, 20]: 20
- Pigweed plant response rating [5, 19]: 50
- Plant response rating, Pigweed [5, 20]: 60
- Kochia plant response rating (Kochia (Kochia scoparia) [6]; [19]): 60
- Plant response rating, Kochia (Kochia (Kochia scoparia) [6]; [20]): 60
- Foxtail, Giant plant response rating [7, 19]: 90
- Plant response rating, Foxtail, Giant [7, 20]: 90
- Barnyardgrass plant response rating [8, 19]: 80
- Plant response rating, Barnyardgrass [8, 20]: 90
- Ryegrass, Italian plant response rating [9, 19]: 20
- Plant response rating, Ryegrass, Italian [9, 20]: 30
- Wheat plant response rating [10, 19]: 0
- Plant response rating, Wheat [10, 20]: 50
- Blackgrass plant response rating [11, 19]: 50
- Plant response rating, Blackgrass [11, 20]: 50
- Galium plant response rating [12, 19]: 50
- Plant response rating, Galium [12, 20]: 50
- Corn plant response rating (corn (Zea mays); [19]): 20
- Plant response rating, Corn (corn (Zea mays); [20]): 30
- Plant response rating, Ragweed [13, 21]: 50
- Ragweed plant response rating (0 to 100 scale, 0 is no effect, 100 is complete control) [13, 22]: 50
- Plant response rating, Pigweed [14, 21]: 40
- Pigweed plant response rating (0 to 100 scale, 0 is no effect, 100 is complete control) [14, 22]: 60
- Plant response rating, Kochia (Kochia (Kochia scoparia) [15]; [21]): 50
- Kochia plant response rating (0 to 100 scale, 0 is no effect, 100 is complete control) (Kochia (Kochia scoparia) [15]; [22]): 50
- Plant response rating, Foxtail, Giant [16, 21]: 90
- Foxtail, Giant plant response rating (0 to 100 scale, 0 is no effect, 100 is complete control) [16, 22]: 90
- Plant response rating, Barnyardgrass [17, 21]: 90
- Barnyardgrass plant response rating (0 to 100 scale, 0 is no effect, 100 is complete control) [17, 22]: 90
- Plant response rating, Ryegrass, Italian [18, 21]: 20
- Ryegrass, Italian plant response rating (0 to 100 scale, 0 is no effect, 100 is complete control) [18, 22]: 60

Reference: patent US12077503B2, “Substituted cyclic amides and their use as herbicides” (FMC CORPORATION, priority 2015, dated 2024)
